The values that follow are results of earlier work, collected in US20130022829A1, “OIL BORNE WOOD PRESERVING COMPOSITION FOR TREATMENT OF POLES, POSTS, PILING, CROSSTIES AND OTHER WOODED STRUCTURES” (Osmose, Inc., priority 2009, published 2013).

For the data set, the system named is Poria. Particulars: background statement on copper soaps.

For `CCCCC(CC)C(=O)[O-].CCCCC(CC)C(=O)[O-].[Cu+2]` (centres unmarked) [Cu-octoate], the “efficacy against copper tolerant fungi, e.g., Poria sp.” value is “insufficient efficacy”.
As to Cu-naphthenate, the “efficacy against copper tolerant fungi, e.g., Poria sp.” value was “insufficient efficacy”.
